Reference: patent US10898535B2, “Composition for inhibiting and preventing myopathy, containing bean leaf extract as active ingredient” (AMOREPACIFIC CORPORATION, priority 2015, dated 2021)

Assays:
Atrogin1 gene (mRNA) = test: Inhibition of expression of Atrogin1 gene (mRNA) in dexamethasone-induced muscle loss model (PCR); type: cell-based, mouse; conditions: differentiated C2C12, dexamethasone 1 μM, dexibuprofen 100 μM, 6 hours, control group = dexamethasone only
Method: (§1) In the present Experimental Example 2, experiments were conducted to evaluate the inhibitory efficacy of the bean leaf extract against the overexpression of Atrogin1 and Murf1 mRNA in the muscle loss induced model by dexamethasone. The experimental group, the control group and the comparison group of Experimental Example 2 were prepared in the same manner as Experimental Example 1. Provided that, when 6 hours had elapsed since the treatment with each final material, RNA was extracted with trizol reagent (TRIzol agent, Invitrogen) after washing twice with cold saline, […] Expression patterns of each gene were measured using primers and probes (Applied biosystems) previously designed for genes of the synthesized cDNA and Atrogin1, Murf1, and GAPD. At this time, polymerase chain reaction (PCR) and analysis were performed using a Rotor-Gene 3000 system (Corbett Research, Sydney, Australia). To increase the reliability, each sample was repeatedly measured three times to derive the average value.

Murf1 gene (mRNA) = test: Inhibition of expression of Murf1 gene (mRNA) in dexamethasone-induced muscle loss model (PCR); type: cell-based, mouse; conditions: differentiated C2C12, dexamethasone 1 μM, dexibuprofen 100 μM, 6 hours, control group = dexamethasone only
Method: as §1

C2C12 (mouse myoblast) = test: Ability to recover cell activity of myocyte in dexamethasone-induced muscle loss model (CCK8, absorbance 450 nm); type: cell-based; conditions: differentiated C2C12, dexamethasone 1 μM, dexibuprofen 100 μM, 24 hours, control group = dexamethasone only
Method: In the present Experimental Example 1, the experiments were conducted to evaluate the recovery efficacy of the bean leaf extract on the decrease in cell activity of myocyte in a model of muscle loss induced by Dexamethasone. Dexamethasone is a kind of glucocorticoid, and increases expression of the Atrogin1 and Murf1 in vitro and in vivo to accelerate proteolytic degradation, thereby resulting in decrease in skeletal muscle, induction of myocyte death, and reduction of cell activity. Accordingly, an experimental model of dexamethasone to myocyte is a useful model for evaluating the function of sarcopenia and is widely used. The C2C12 (mouse myoblast) used in Experimental Example 1 was purchased from American Type Culture Collection (Manassas, Va., USA) and the cells were cultured in DMEM containing 10% FBS, 100 units/mL Penicillin, and […] streptomycin. Specific experimental methods are as follows. […] After 24 hours of treatment with the material, the medium was replaced with medium containing 10% solution of CCK8 […], and allowed to react for 10 minutes, and the cell activity was measured by measuring the absorbance at 450 nm. To increase the reliability, each sample was repeatedly measured three times to derive the average value.

CC(C)Cc1ccc([C@H](C)C(=O)O)cc1 [Dexibuprofen, dexibuprofen]
Change in Atrogin1 gene expression relative to control group (%) (Atrogin1 gene (mRNA)): −2.6%
Change in Atrogin1 gene expression relative to control group (%) (Atrogin1 gene (mRNA); listed as dexibuprofen): insignificant
Change in Murf1 gene expression relative to control group (%) (Murf1 gene (mRNA)): −3.3%
Change in Murf1 gene expression relative to control group (%) (Murf1 gene (mRNA); listed as dexibuprofen): insignificant
Change in cell activity relative to control group (%) (C2C12 (mouse myoblast)): −4.1%
Change in cell activity relative to control group (%) (C2C12 (mouse myoblast); listed as dexibuprofen): no recovery of myocyte activity is observed
